{"source": "ChEMBL document CHEMBL5113500", "about": "“New brefeldin A-cinnamic acid ester derivatives as potential antitumor agents: Design, synthesis and biological evaluation” (Eur J Med Chem, 2022)", "test_system": "HepG2", "experiment": "Cell cycle arrest in human HepG2 cells assessed as accumulation at G2/M phase at 0.4 uM measured after 24 hrs by propidium iodide staining based flow cytometry (reference value: 19.93%)", "format": "functional", "data": [{"compound": "C[C@H]1CCC/C=C/[C@@H]2C[C@H](O)C[C@H]2[C@H](OC(=O)/C=C/c2ccc(N(C)C)cc2)/C=C/C(=O)O1", "values": [{"measurement": "Activity", "result": 20.88, "unit": "%"}]}]}
